# Laboratory results published in BindingDB's records for doi:10.1016/j.bmc.2006.09.055 (University of Cape Town, 2007).
# Target: T1, Falcipain 2 (Plasmodium falciparum, UniProt Q9N6S8)
# T1 sequence (Q9N6S8 whole entry): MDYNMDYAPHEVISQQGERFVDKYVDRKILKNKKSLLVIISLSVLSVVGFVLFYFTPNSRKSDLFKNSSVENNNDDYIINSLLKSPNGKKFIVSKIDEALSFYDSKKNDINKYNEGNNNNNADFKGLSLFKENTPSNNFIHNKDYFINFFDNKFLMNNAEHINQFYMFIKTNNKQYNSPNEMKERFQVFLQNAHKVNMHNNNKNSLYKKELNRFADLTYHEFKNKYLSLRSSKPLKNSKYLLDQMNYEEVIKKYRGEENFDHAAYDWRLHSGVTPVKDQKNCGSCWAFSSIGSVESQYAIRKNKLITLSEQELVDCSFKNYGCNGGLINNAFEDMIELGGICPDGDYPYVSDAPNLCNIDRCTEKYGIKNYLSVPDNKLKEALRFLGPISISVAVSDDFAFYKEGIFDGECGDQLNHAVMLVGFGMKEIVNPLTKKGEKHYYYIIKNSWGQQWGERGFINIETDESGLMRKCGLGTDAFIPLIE
# Experiment: Falcipain-2 Inhibition Assay
# Settings: pH 5.5; 22 °C
# Protocol: IC50 values against the recombinant falcipain-2 were determined by incubating protein with different concentrations of inhibitors in reaction buffer after addition of the substrate. Fluorescence was continuously monitored for 30 min at room temperature in a Labsystems Fluoroscan Ascent spectrofluorometer. IC50 values were determined from plots of activity over inhibitor concentration with GraphPad Prism software.
smiles,measurement,value
"NC(=S)NN=Cc1ccc(O)cc1O [2,4-dihydroxybenzaldehyde thiosemicarbazone]",IC50,> 20 µM
